Assay results: paper PMC10704561, “Multi-Photon-Sensitive Chromophore for the Photorelease of Biologically Active Phenols” (ACS Chemical Neuroscience, 2023)
Like-named read-outs stand apart in the source and are kept apart here.

How the values were obtained:
dLight 1.2 = assay: Activation of dLight 1.2 on HCT 116 cells by photoreleased dopamine; type: cell-based; details: for dLight 1.2 response after photoactivation (1PE): 10 μM
Method: (§1) HCT 116 cells were grown in Dulbecco’s […] medium (DMEM) supplemented with 10% fetal bovine serum (FBS), 1% nonessential amino acids (NEAA), and maintained at 37 °C and 5% CO2. HEK 293 cells stably expressing TRPV1 channels were grown as previously described.[62]
(§2) An Olympus FluoView FV1000MPE confocal microscope was employed to image and record cells plated onto 35 mm glass-bottom 4-well plates. A 488 nm ion laser excited the dopamine and serotonin sensors dLight 1.2 and GRAB5-HT, respectively, and Fluo-4 calcium dye. FluoView 10-ASW version 4.0 (Olympus), ImageJ-Fiji, and DeltaGraph (Red Rock Software) were used for capturing, extracting, and processing the collected data. Photoactivation was conducted with 405 nm (100% laser power, 1PE) or 720 nm (10% laser power, 24 mW, 2PE) light for MeO-CyHQ-O-DA and MeO-CyHQ-O-5HT or 740 nm (20% laser power, 15 mW light) for MeO-CyHQ-O-VNA and MeO-CyHQ-O-EG. Images were captured by using a 60× immersion lens.
(§3) HCT 116 cells were grown to 70% confluency on specialized glass-bottom plates for imaging. After 24 h, the cells were transfected (70% efficiency) with either dLight 1.2 or GRAB5-HT. Before imaging, the DMEM was discarded and the cells were washed twice with HBSS. HBSS (500 μL) was added per well for imaging. DMSO was used to dissolve the compounds CyHQ-O-DA, MeO-CyHQ-O-DA, and MeO-CyHQ-O-5HT to make 1 mM stock solutions. These were then added to the wells to obtain the desired final concentrations, keeping the DMSO concentration to less than 1%, which is tolerated by the cells. Control experiments included optimization of the response of the dLight 1.2 and GRAB5-HT sensors to the release of dopamine and serotonin, respectively, through exposure to different concentrations of CyHQ-O-DA, MeO-CyHQ-O-DA, and MeO-CyHQ-O-5HT at different durations of 405 nm light. Optimizations were conducted in a similar manner for activation through 2PE. Light dose–response curves were generated by applying a 405 nm light pulse for 1, 10, 50, 100, 200, 300, 400, 500, 600, 750, and 1000 ms at 50 frame intervals for CyHQ-O-DA, MeO-CyHQ-O-DA, and MeO-CyHQ-O-5HT.

[1] = parameters: method as in PMID 32077679; details: KMOPS buffer, pH 7.2; cited from earlier work
[2] = parameters: method as in PMID 32077679; details: cited from earlier work
[3] = parameters: method as in PMID 32077679; details: KMOPS buffer, pH 7.2; cited from earlier work; remark: listed apart in the source
[4] = UV-vis spectra and molar extinction coefficient in KMOPS buffer; type: physicochemical; details: 0.1 mM in KMOPS buffer, pH 7.2 (3d, 6c: 10 or 20% CH3CN added)
Method: A 100 μM solution of each protected phenol was prepared in KMOPS buffer (20% CH3CN was used as a cosolvent for compounds 3d and 6c). The UV–vis spectra of these solutions were recorded at between 250 and 500 nm. All of the measurements were repeated in triplicate, and the absorbance values were averaged. The Beer–Lambert law, ε = A(cl)^−1, was used for the calculation of ε values at λ = 365 nm, where A is the absorbance value measured at 365 nm, c is the concentration of the sample, and l is the cuvette length (1 cm). See the Supporting Information for the spectra.

[5] = One-photon excitation (1PE) photolysis with 365 nm LED, HPLC quantification; type: physicochemical; details: for t90% (time required to consume 90% of the starting material): 1PE 365 nm LED, lamp intensity differs per compound (Table S1)
Method: A 0.1 mM solution (3 mL) of each protected phenol in KMOPS buffer (10 or 20% CH3CN was used as a cosolvent for 3d and 6c) was placed in a 3 mL quartz cuvette along with a stirring bar. The solution was irradiated with stirring using a 365 nm LED lamp (Cairn OptoLED Lite). At different time intervals, 80 μL aliquots of the solution were taken out and analyzed by uHPLC (Agilent 1290 Infinity series), monitoring the AUC at 320 nm (Supporting Information, HPLC Data). An external standard calibration method of quantification was used for the calibration of the samples. The experiments were repeated in sets of three. A gradient elution with a flux rate of 0.3 mL/min using a mobile phase comprising A = 0.1% trifluoroacetic acid in water and B = acetonitrile (starting from 5% B to 100% over 10 min and re-equilibrating to 5% B before the next run) was used for the separations. A comparison of the AUC with the calibration curves of the substrates (obtained from known concentration) determined the percentages of the remaining starting materials. The percentages of the remaining starting materials were plotted versus time. The time to 90% of decomposition of the substrate (t90% values) was obtained by fitting a single exponential decay curve to the data using DeltaGraph (Red Rock Software). The following equation was used to calculate the quantum yield (Φu) of each photolysis reaction:[42],[47],[56],[57] Φu = (I σ t90%)^−1, where I is the irradiation intensity (determined by potassium ferrioxalate actinometry and measured in Einstein cm^–2 s^–1),[58] σ is the decadic extinction coefficient (1000 × ε) at 365 nm, and t90% is the time required to consume 90% of the starting material. See Supporting Information Table S1 for the I, σ, and t90% data.

[6] = Spontaneous hydrolysis in the dark; type: physicochemical; details: 0.1 mM in KMOPS pH 7.2, dark, 7 days
Method: A 0.1 mM solution of each compound was prepared in KMOPS buffer. For compounds 3d and 6c, 20% CH3CN was used as a cosolvent. The solutions were kept in the dark for 7 days, and the percentage of the starting materials was determined by periodic HPLC analysis (Supporting Information, HPLC Data).

[7] = Solubility in KMOPS buffer pH 7.2; type: physicochemical; details: aqueous buffer; KMOPS buffer, pH 7.2; read-out: solubility
Text: The photochemical and photophysical properties were investigated in a simulated physiological buffer (KMOPS, pH 7.2) and compared with the literature data for CyHQ-O-DA (Table 1). […] For this derivative, 10% CH3CN in the buffer was used to ensure complete solubilization for the photochemistry experiments. The spontaneous hydrolysis in the dark was monitored over a period of 7 days and no significant hydrolysis was detected for any of the constructs. The molar absorptivity at the wavelength used for 1PE photolysis (ε365) ranged between 4800 and 5670 M^–1 cm^–1, in line with the values of most CyHQ-based PPGs.
The photochemical behavior of constructs 4–7c was investigated in KMOPS buffer at the concentration of 0.1 mM. Under these conditions, all compounds were soluble except for the VNA analogue 6c, which, because of the lipophilicity of the vanilloid, required 20% CH3CN for full solubilization. The stability toward hydrolysis in the dark was monitored over a week, and no significant decomposition was detected for any probe. All constructs were successfully photolyzed after light exposure, as shown in the time courses of the photolysis reactions (Figure 3). MeO-CyHQ constructs 4c, 6c, and 7c were photoactivated with excellent quantum efficiency and sensitivities, and good chemical yields were obtained by monitoring the appearance of the released bioeffector over the time course of the photoreaction (Table 1). […] We believe this effect is due to the presence of the thiophene ring, a well-known photoactive group,[51] which could act as an energy sink in the excited state and quench the photochemical reaction.

GRAB5-HT = assay: Activation of GRAB5-HT on HCT 116 cells by photoreleased serotonin; type: cell-based
Method: as §1, §2
as §3, with “Light dose–response curves were generated by applying a 405 nm light pulse for 1, 10, 50, 100, 200, 300, 400, 500, 600, 750, and 1000 ms at 50 frame intervals for CyHQ-O-DA, MeO-CyHQ-O-DA, and MeO-CyHQ-O-5HT.” left out

## NCCc1ccc(O)c(O)c1 [dopamine, reference compound]
dLight 1.2; 100 μM, no photoactivation
  dLight 1.2 response to bulk addition: increase in fluorescence output

## N#Cc1c(O)ccc2ccc(COc3cc(CCN)ccc3O)nc12 [CyHQ-O-DA]
dLight 1.2; 405 nm light pulse
  dLight 1.2 response after photoactivation (1PE): increase in fluorescence output
[1]
  ε365: 5300 M^–1 cm^–1
  λmax: 365 nm
[2]
  τd (time constant of spontaneous hydrolysis in buffer in the dark at room temperature): nh ^g (No hydrolysis (<5% detected after 7 days))
[3]
  solubility: >100 µM

## COc1cc(COc2ccc(CCN)cc2O)nc2c(C#N)c(O)ccc12.O=C(O)C(F)(F)F [3c, 2-(4-((8-Cyano-7-hydroxy-4-methoxyquinolin-2-yl)methoxy)-3-hydroxyphenyl)ethan-1-aminium 2,2,2-trifluoroacetate]
[4]
  ε365: 5670 M^–1 cm^–1
  λmax: 354 nm
[5]
  t90% (time required to consume 90% of the starting material): 25.4 s
[5]; 365 nm
  irradiation time to complete the 1PE photolysis reaction: less than 1 min
[6]
  τd (time constant of spontaneous hydrolysis in buffer in the dark at room temperature): nh (No hydrolysis (<5% detected after 7 days))
[7]
  solubility: > 100 µM
dLight 1.2; 10 ms flash of 405 nm light
  dLight 1.2 response after photoactivation (1PE): robust response
dLight 1.2; 100 μM, 200 ms flash of 720 nm light
  dLight 1.2 response after photoactivation (2PE): activated dLight 1.2

## COc1cc(COc2ccc3[nH]cc(CCN)c3c2)nc2c(C#N)c(O)ccc12.O=C(O)C(F)(F)F [4c, 2-(5-((8-Cyano-7-hydroxy-4-methoxyquinolin-2-yl)methoxy)-1H-indol-3-yl)ethan-1-aminium 2,2,2-trifluoroacetate]
[4]
  ε365: 5400 M^–1 cm^–1
  λmax: 355 nm
[5]
  t90% (time required to consume 90% of the starting material): 18.4 s
[6]
  τd (time constant of spontaneous hydrolysis in buffer in the dark at room temperature): nh (No hydrolysis (<5% detected after 7 days))
[7]
  solubility: > 100 µM
GRAB5-HT; 20 μM, 20 ms burst of 405 nm light
  GRAB5-HT response after photoactivation (1PE): robust response
GRAB5-HT; 200 μM, 200 ms pulse of 720 nm light
  GRAB5-HT response after photoactivation (2PE): robust response
GRAB5-HT; 405 nm (1PE), 20 μM
  light pulse duration at which the GRAB5-HT response plateaus: around 200 ms
